Experimental findings from US10793530B2, “Benzylaminopyrazinylcyclopropanecarboxylic acids, pharmaceutical compositions and uses thereof” (Boehringer Ingelheim International GmbH, priority 2017, dated 2020) are described below.

The structures appear in SMILES notation.

By EC50 is commonly meant the midpoint of the concentration-response curve.

Sequence of human GPR40 receptor (O14842 whole entry): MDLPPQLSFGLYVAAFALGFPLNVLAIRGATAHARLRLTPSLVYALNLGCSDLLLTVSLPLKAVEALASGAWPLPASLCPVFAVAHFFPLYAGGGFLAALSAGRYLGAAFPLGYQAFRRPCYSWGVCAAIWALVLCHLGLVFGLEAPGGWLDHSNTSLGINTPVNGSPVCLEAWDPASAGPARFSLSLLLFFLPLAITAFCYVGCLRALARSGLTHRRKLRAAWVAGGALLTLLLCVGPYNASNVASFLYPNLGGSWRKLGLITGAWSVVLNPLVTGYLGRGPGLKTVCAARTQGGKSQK

The target of this assay is human GPR40 receptor (Homo sapiens, UniProt O14842). Nature of the assay: IP1 accumulation measurements using the IPOne assay system. The format is cell-based. Particulars: 1321N1 cells stably expressing human GPR40 receptor; stimulated 1 h at 37° C. The procedure:
IP1 is assayed according to the manufacturers description (Cisbio Bioassays, France). In brief, the assay is started by substitution of the culture medium by stimulation buffer (Hepes 10 mM, CaCl2 1 mM, MgCl2 0.5 mM, KCl 4.2 mM, NaCl 146 mM, glucose 5.5 mM and LiCl 50 mM, pH 7.4). Cells are stimulated for 1 h at 37° C., 5% CO2 by addition of the compounds that are diluted in stimulation buffer containing LiCl. Assays are stopped by adding HTRF-conjugates (IP1-d2 and Anti-IP1 cryptate Tb) and lysis buffer, provided by the manufacturer. After an incubation time of 1 h at room temperature plates are measured using an EnVision™, Perkin Elmer. The obtained fluorescence ratios at 665/615 […] are then used to calculate the pEC50 values using Assay Explorer 3.3 Software (Accelrys, Inc.) by interpolation using an IP1 reference curve and subsequent sigmoidal curve fitting allowing for a variable hill slope.
Turning to `Cc1cc(OCC2CCCO2)cc(C)c1-c1ccc(F)c(CNc2cnc(C3CC3C(=O)O)cn2)c1` (mixture of isomers) [Example 44], a half-maximal response (EC50) required 1920 nM.

`Cc1cc(OCCCS(C)(=O)=O)cc(C)c1-c1cccc(CNc2cnc([C@H]3C[C@@H]3C(=O)O)cn2)c1` [Example 1, (1S,2S)-2-(5-{[4′-(3-Methanesulfonyl-propoxy)-2′,6′-dimethyl-biphenyl-3-ylmethyl]-amino}-pyrazin-2-yl)-cyclopropanecarboxylic acid] returned an EC50 of 36 nM.

`CC(C)(O)CCOc1ccc(-c2cc(CNc3cnc([C@H]4C[C@@H]4C(=O)O)cn3)ccc2C(F)(F)F)cc1` [Example 2, (1S,2S)-2-(5-{[4′-(3-Hydroxy-3-methyl-butoxy)-6-trifluoromethyl-biphenyl-3-ylmethyl]-amino}-pyrazin-2-yl)-cyclopropanecarboxylic acid] displayed an EC50 of 6 nM.

With `O=C(O)[C@H]1C[C@@H]1c1cnc(NCc2ccc(C(F)(F)F)c(-c3ccc(OCC4CC4)cc3)c2)cn1` [Example 3, (1S,2S)-2-{5-[(4′-Cyclopropylmethoxy-6-trifluoromethyl-biphenyl-3-ylmethyl)-amino]-pyrazin-2-yl}-cyclopropanecarboxylic acid], the midpoint of the response, the EC50, lay at 28 nM.

In turn, `O=C(O)[C@H]1C[C@@H]1c1cnc(NCc2ccc(C(F)(F)F)c(-c3ccc(OC(F)(F)F)cc3)c2)cn1` [Example 4, (1S,2S)-2-{5-[(4′-Trifluoromethoxy-6-trifluoromethyl-biphenyl-3-ylmethyl)-amino]-pyrazin-2-yl}-cyclopropanecarboxylic acid] came in with a concentration giving a half-maximal response (EC50) of 9 nM.

`Cc1cc(OCCC(C)(C)O)cc(C)c1-c1cc(CNc2cnc([C@H]3C[C@@H]3C(=O)O)cn2)ccc1C(F)(F)F` [Example 5, (1S,2S)-2-(5-{[4′-(3-Hydroxy-3-methyl-butoxy)-2′,6′-dimethyl-6-trifluoromethyl-biphenyl-3-ylmethyl]-amino}-pyrazin-2-yl)-cyclopropanecarboxylic acid] showed an EC50 of 310 nM.

Molecule `COc1ccc(-c2ccc(-c3cc(CNc4cnc([C@H]5C[C@@H]5C(=O)O)cn4)c(F)cc3F)cc2)nc1` [Example 6, (1S,2S)-2-(5-{[4,6-Difluoro-4′-(5-methoxy-pyridin-2-yl)-biphenyl-3-ylmethyl]-amino}-pyrazin-2-yl)-cyclopropanecarboxylic acid] yielded a concentration for a half-maximal effect (EC50) of 19 nM.

Take `COc1ccc(-c2ccc(-c3cc(CNc4cnc([C@H]5C[C@@H]5C(=O)O)cn4)c(F)cc3F)cc2)nn1` [Example 7, (1S,2S)-2-(5-{[4,6-Difluoro-4′-(6-methoxy-pyridazin-3-yl)-biphenyl-3-ylmethyl]-amino}-pyrazin-2-yl)-cyclopropanecarboxylic acid]: the EC50 is 38 nM.

In the case of `Cc1cc(N)ccc1-c1cc(CNc2cnc([C@H]3C[C@@H]3C(=O)O)cn2)c(F)cc1F` [Example 8, (1S,2S)-2-{5-[(4′-Amino-4,6-difluoro-2′-methyl-biphenyl-3-ylmethyl)-amino]-pyrazin-2-yl}-cyclopropanecarboxylic acid], the half-maximal effective concentration (EC50) is 126 nM.

Molecule `O=C(O)[C@H]1C[C@@H]1c1cnc(NCc2cc(-c3ccc(O)c(Cl)c3)c(F)cc2F)cn1` [Example 9, (1S,2S)-2-{5-[(3′-Choro-4,6-difluoro-4′-hydroxy-biphenyl-3-ylmethyl)-amino]-pyrazin-2-yl}-cyclopropanecarboxylic acid] showed an EC50 of 596 nM.

The molecule `COc1c(F)cc(-c2cc(CNc3cnc([C@H]4C[C@@H]4C(=O)O)cn3)c(F)cc2F)cc1F` [Example 10, (1S,2S)-2-{5-[(4,6,3′,5′-Tetrafluoro-4′-methoxy-biphenyl-3-ylmethyl)-amino]-pyrazin-2-yl}-cyclopropanecarboxylic acid] came in with a concentration giving a half-maximal response (EC50) of 53 nM.

`Cc1cc(OCC(C)(C)O)cc(C)c1-c1ccc(F)c(CNc2cnc(C3CC3C(=O)O)cn2)c1` (stereo not drawn) [Example 11]: a half-maximal response (EC50) required 18 nM.

With `Cc1cc(OCC2(O)CCS(=O)(=O)CC2)cc(C)c1-c1ccc(F)c(CNc2cnc(C3CC3C(=O)O)cn2)c1` (stereo not drawn) [Example 12], the concentration for a half-maximal effect (EC50) is 100 nM.

Molecule `CNC(=O)c1cc(C)c(-c2ccc(F)c(CNc3cnc(C4CC4C(=O)O)cn3)c2)c(C)c1` (stereo not drawn) [Example 13] came in with an EC50 of 224 nM.

The molecule `Cc1cc(C(=O)N(C)C)cc(C)c1-c1ccc(F)c(CNc2cnc(C3CC3C(=O)O)cn2)c1` (stereo not drawn) [Example 14] showed an EC50 of 34 nM.

Molecule `Cc1cc(C(=O)O)cc(C)c1-c1ccc(F)c(CNc2cnc(C3CC3C(=O)O)cn2)c1` (stereo not drawn) [Example 15] returned a half-maximal effective concentration (EC50) of 24 nM.

In turn, `Cc1cc(-c2ccc(=O)n(C)c2)cc(C)c1-c1ccc(F)c(CNc2cnc(C3CC3C(=O)O)cn2)c1` (stereo not drawn) [Example 16] returned an EC50 of 21 nM.

On to `CC(C)c1ccccc1-c1ccc(F)c(CNc2cnc(C3CC3C(=O)O)cn2)c1` (stereo not drawn) [Example 17], for which a half-maximal response (EC50) required 154 nM.

Consider `Cc1cc(OCC2CCOCC2)cc(C)c1-c1ccc(F)c(CNc2cnc(C3CC3C(=O)O)cn2)c1` (stereo not drawn) [Example 18], for which a half-maximal response (EC50) required 14 nM.

On to `Cc1cc(OC2CCOCC2)cc(C)c1-c1ccc(F)c(CNc2cnc(C3CC3C(=O)O)cn2)c1` (stereo not drawn) [Example 20], for which the EC50 turned out to be 22 nM.

In turn, `Cc1cc(-c2cc(=O)n(C)cn2)cc(C)c1-c1ccc(F)c(CNc2cnc(C3CC3C(=O)O)cn2)c1` (stereo not drawn) [Example 21] had a half-maximal effective concentration (EC50) of 21 nM.

Take `Cc1cc(-c2ccn(C)c(=O)c2)cc(C)c1-c1ccc(F)c(CNc2cnc(C3CC3C(=O)O)cn2)c1` (stereo not drawn) [Example 22]: the EC50 was found to be 14 nM.

Turning to `Cc1cc(OCC(C)(C)C#N)cc(C)c1-c1ccc(F)c(CNc2cnc(C3CC3C(=O)O)cn2)c1` (stereo not drawn) [Example 24], a half-maximal response (EC50) required 34 nM.

Molecule `Cc1cc(-c2nnn(CC(C)(C)O)n2)cc(C)c1-c1ccc(F)c(CNc2cnc(C3CC3C(=O)O)cn2)c1` (stereo not drawn) [Example 28] returned an EC50 of 7 nM.

`Cc1cc(OCC2(O)CCOCC2)cc(C)c1-c1ccc(F)c(CNc2cnc(C3CC3C(=O)O)cn2)c1` (stereo not drawn) [Example 29]: the 50% effective concentration (EC50) was found to be 68 nM.

For `Cc1cc(OCC2(O)CCSCC2)cc(C)c1-c1ccc(F)c(CNc2cnc(C3CC3C(=O)O)cn2)c1` (stereo not drawn) [Example 30], the concentration for a half-maximal effect (EC50) amounted to 28 nM.

`COc1cc(-c2cc(C)c(-c3ccc(F)c(CNc4cnc(C5CC5C(=O)O)cn4)c3)c(C)c2)ccn1` (stereo not drawn) [Example 31] displayed an EC50 of 5 nM.

As for `Cc1nc(-c2ccc(-c3ccc(F)c(CNc4cnc(C5CC5C(=O)O)cn4)c3)cc2)cs1` (stereo not drawn) [Example 32], a half-maximal response (EC50) required 20 nM.

In turn, `Cc1cc(OCC2(C)COC2)cc(C)c1-c1ccc(F)c(CNc2cnc(C3CC3C(=O)O)cn2)c1` (stereo not drawn) [Example 33] showed an EC50 of 147 nM.

On to `Cc1cc(OCC(=O)O)cc(C)c1-c1ccc(F)c(CNc2cnc(C3CC3C(=O)O)cn2)c1` (stereo not drawn) [Example 34], for which the 50% effective concentration (EC50) was determined as 104 nM.

The molecule `CCc1cccc(CC)c1-c1ccc(F)c(CNc2cnc(C3CC3C(=O)O)cn2)c1` (stereo not drawn) [Example 36] yielded a 50% effective concentration (EC50) of 4 nM.

In turn, `COc1cc(OC)c(F)c(-c2ccc(F)c(CNc3cnc(C4CC4C(=O)O)cn3)c2)c1F` (stereo not drawn) [Example 37] registered a concentration giving a half-maximal response (EC50) of 47 nM.

Take `Cc1cc(CO)cc(C)c1-c1ccc(F)c(CNc2cnc(C3CC3C(=O)O)cn2)c1` (stereo not drawn) [Example 39]: the response was half-maximal at 4280 nM (EC50).

Molecule `O=C(O)C1CC1c1cnc(NCc2cc(-c3ccccc3C(F)(F)F)ccc2F)cn1` (stereo not drawn) [Example 40] yielded a concentration for a half-maximal effect (EC50) of 51 nM.

Take `Cc1ccc(Cl)c(-c2ccc(F)c(CNc3cnc(C4CC4C(=O)O)cn3)c2)c1Cl` (stereo not drawn) [Example 41]: the midpoint of the response, the EC50, lay at 723 nM.

As for `Cc1cc(OC2CCOC2)cc(C)c1-c1ccc(F)c(CNc2cnc(C3CC3C(=O)O)cn2)c1` (stereo not drawn) [Example 42], a half-maximal effect (EC50) was put at 28 nM.
